Test system: strain HIV-III of the Human Immunodeficiency virus (HIV)
Assay: Protection of HIV-infected human lymphocyte cell lines from virus destruction (syncytia formation, cell rounding/cytopathology), microtiter test
Format: cell-based
Details: Human immunodeficiency virus 1, Lymphocyte, continuous cell lines derived from human lymphocytes infected with HIV, incubated 7 to 14 days, microscopic inspection, tests (a) and (b), read-out: Protection of Cells
Description: Continuous cell lines derived from human lymphocytes are grown in a microtiter test system. The cells are infected with strain […] of the Human Immunodeficiency virus (HIV), a standard strain isolated from a patient with Acquired Immune Deficiency Syndrome (AIDS). The treated cells are incubated for 7 to 14 days, and the treated cells are inspected by microscope to determine (a) prevention of synctia (cell to cell fusion) formation induced by HIV, or (b) prevention of cell rounding and prevention of HIV caused cytopathology. Such inspections indicate the ability of the compound to prevent cell killing by the virus. Additionally, biochemical determination of the cell media is made to ascertain the ability of the compound to prevent formation of viral products (reverse transcriptase, p24 antigen, or other products), and prevention of formation of more HIV itself.
The control refers to the treatment without a compound of the present invention.

**Q.** How did the inhibition at 32 µg/mL (Concentration 32 µg/ml) turn out when `Cc1cn([C@H]2C[C@H](N=[N+]=[N-])[C@@H](COP(=O)(O)OCC3CCC(n4cnc5c(N)ncnc54)C3)O2)c(=O)[nH]c1=O` (some centres unmarked) [Compound of Example 1, 5′-O-[[[3-(6-Amino-9H-purin-9-yl)cyclopentyl]methoxy]hydroxyphosphinyl]-3′-azido-3′-deoxy-thymidine] was run?
**A.** Its inhibition at 32 µg/mL is 100%.

**Q.** And the inhibition at 100 µg/mL (Concentration 100 µg/ml)?
**A.** Its inhibition at 100 µg/mL is 100%.

— patent publication EP0375183A1, “Antiviral dimers and trimers” (SCHERING CORPORATION, priority 1988, dated 1990)
